Key:
LK2 cells = assay: Cell growth inhibitory activity, LK2 cells (Test Example 3); format: cell-based; conditions: Homo sapiens, LK-2, 72 h, cultured for 3 days, CellTiter-Glo
Protocol: (§1) [Test Example 3] Evaluation of Cell Growth Inhibitory Activity
(§2) As a culture medium for each cell, a 10% FBS supplemented RPMI 1640 medium (for LK2 cells and TE-8 cells derived from human esophageal cancer) was used. LK2 cells were purchased from Human Science Research Resources Bank, and TE-8 cells were purchased from Riken Cell Bank. The compound of each of Examples 1 to 108b was prepared by dilution with Freedom EVO 150 (Tecan Trading AG) (4-fold diluted, 10 stages, 10 mM to 38 nM). The resultant was added to respective wells of a 384-well plate in an amount of 40 nL/well using Echo 555 (Labcyte Inc.). The LK2 or TE-8 cells were seeded in the plate at 400 cells/40 μL/well (day 0), and were cultured for 3 days. On the day of addition of the compound (day 0) and 3 days after the addition of the compound (day 3), an ATP measurement reagent of CellTiter-Glo (registered trademark) 2.0 Assay (Promega Corporation, #G9242) was added to each well in an amount of 10 μL/well, and the amount of luminescence of each well was measured using EnVision. Based on the amount of luminescence (C0) on the day of the addition of the compound, and the amounts of luminescence of a compound non-addition group (C3) and a compound addition group (T3) obtained after the 3-day culture of the compound, a cell survival rate was calculated in accordance with the following expression: Cell survival rate (%)=(T3−C0)/(C3−C0)×100
(§3) A concentration (GI50 value) of each compound at which the growth of the TE-8 or LK-2 cells was inhibited by 50% was calculated by semilogarithmically plotting the cell survival rate at each concentration and the compound concentration.

H3K27Ac = assay: Intracellular H3K27Ac inhibitory activity in LK2 cells (Test Example 2); format: cell-based; conditions: Homo sapiens, LK-2, cultured with compound for 3 hours, read-out: Test Example 2 H3K27Ac Inhibition (LK2) IC50
Procedure, shortened: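 Human squamous lung cancer LK2 cells (40000/well) cultured overnight at 37 °C, 5% CO2 before treatment. After paraformaldehyde fixation, peroxide quench and blocking, H3K27 acetylation detected with anti-acetyl-H3K27 rabbit mAb (4 °C overnight) and HRP secondary; chemiluminescent read-out.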

CREBBP = CREBBP (Homo sapiens, UniProt Q92793); assay: Histone acetyltransferase inhibitory activity against CREBBP (Test Example 1); format: biochemical; conditions: 125 ng/mL CREBBP, 2 μM Acetyl-CoA, 100 nM Histone H4(1-25)-GSGSK (Biotin), 28° C. for 1 hour
Procedure, shortened: (§4)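 Enzyme (50 ng/mL EP300 or 125 ng/mL CREBBP) incubated 1 h at 28° C with 2 μM acetyl-CoA, 100 nM biotinylated histone H4(1-25) peptide and 10 to 0.0006 μM compound in pH 8.0 Tris buffer with 330 nM trichostatin A, 1% DMSO. Reaction stopped with Lys-CoA; acetylation read by TR-FRET (Eu-anti pan-Ac/Sta-ULight) after overnight room-temperature incubation.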

TE-8 cells = assay: Cell growth inhibitory activity, TE-8 cells (Test Example 3); format: cell-based; conditions: Homo sapiens, 72 h, cultured for 3 days, CellTiter-Glo
Protocol: as §1, §2, §3

EP300 = EP300 (Homo sapiens, UniProt Q09472); assay: Histone acetyltransferase inhibitory activity against EP300 (Test Example 1); format: biochemical; conditions: 50 ng/mL EP300, 2 μM Acetyl-CoA, 100 nM Histone H4(1-25)-GSGSK (Biotin), 28° C. for 1 hour
Procedure, shortened: as §4

Chain of CREBBP (Q92793 whole entry): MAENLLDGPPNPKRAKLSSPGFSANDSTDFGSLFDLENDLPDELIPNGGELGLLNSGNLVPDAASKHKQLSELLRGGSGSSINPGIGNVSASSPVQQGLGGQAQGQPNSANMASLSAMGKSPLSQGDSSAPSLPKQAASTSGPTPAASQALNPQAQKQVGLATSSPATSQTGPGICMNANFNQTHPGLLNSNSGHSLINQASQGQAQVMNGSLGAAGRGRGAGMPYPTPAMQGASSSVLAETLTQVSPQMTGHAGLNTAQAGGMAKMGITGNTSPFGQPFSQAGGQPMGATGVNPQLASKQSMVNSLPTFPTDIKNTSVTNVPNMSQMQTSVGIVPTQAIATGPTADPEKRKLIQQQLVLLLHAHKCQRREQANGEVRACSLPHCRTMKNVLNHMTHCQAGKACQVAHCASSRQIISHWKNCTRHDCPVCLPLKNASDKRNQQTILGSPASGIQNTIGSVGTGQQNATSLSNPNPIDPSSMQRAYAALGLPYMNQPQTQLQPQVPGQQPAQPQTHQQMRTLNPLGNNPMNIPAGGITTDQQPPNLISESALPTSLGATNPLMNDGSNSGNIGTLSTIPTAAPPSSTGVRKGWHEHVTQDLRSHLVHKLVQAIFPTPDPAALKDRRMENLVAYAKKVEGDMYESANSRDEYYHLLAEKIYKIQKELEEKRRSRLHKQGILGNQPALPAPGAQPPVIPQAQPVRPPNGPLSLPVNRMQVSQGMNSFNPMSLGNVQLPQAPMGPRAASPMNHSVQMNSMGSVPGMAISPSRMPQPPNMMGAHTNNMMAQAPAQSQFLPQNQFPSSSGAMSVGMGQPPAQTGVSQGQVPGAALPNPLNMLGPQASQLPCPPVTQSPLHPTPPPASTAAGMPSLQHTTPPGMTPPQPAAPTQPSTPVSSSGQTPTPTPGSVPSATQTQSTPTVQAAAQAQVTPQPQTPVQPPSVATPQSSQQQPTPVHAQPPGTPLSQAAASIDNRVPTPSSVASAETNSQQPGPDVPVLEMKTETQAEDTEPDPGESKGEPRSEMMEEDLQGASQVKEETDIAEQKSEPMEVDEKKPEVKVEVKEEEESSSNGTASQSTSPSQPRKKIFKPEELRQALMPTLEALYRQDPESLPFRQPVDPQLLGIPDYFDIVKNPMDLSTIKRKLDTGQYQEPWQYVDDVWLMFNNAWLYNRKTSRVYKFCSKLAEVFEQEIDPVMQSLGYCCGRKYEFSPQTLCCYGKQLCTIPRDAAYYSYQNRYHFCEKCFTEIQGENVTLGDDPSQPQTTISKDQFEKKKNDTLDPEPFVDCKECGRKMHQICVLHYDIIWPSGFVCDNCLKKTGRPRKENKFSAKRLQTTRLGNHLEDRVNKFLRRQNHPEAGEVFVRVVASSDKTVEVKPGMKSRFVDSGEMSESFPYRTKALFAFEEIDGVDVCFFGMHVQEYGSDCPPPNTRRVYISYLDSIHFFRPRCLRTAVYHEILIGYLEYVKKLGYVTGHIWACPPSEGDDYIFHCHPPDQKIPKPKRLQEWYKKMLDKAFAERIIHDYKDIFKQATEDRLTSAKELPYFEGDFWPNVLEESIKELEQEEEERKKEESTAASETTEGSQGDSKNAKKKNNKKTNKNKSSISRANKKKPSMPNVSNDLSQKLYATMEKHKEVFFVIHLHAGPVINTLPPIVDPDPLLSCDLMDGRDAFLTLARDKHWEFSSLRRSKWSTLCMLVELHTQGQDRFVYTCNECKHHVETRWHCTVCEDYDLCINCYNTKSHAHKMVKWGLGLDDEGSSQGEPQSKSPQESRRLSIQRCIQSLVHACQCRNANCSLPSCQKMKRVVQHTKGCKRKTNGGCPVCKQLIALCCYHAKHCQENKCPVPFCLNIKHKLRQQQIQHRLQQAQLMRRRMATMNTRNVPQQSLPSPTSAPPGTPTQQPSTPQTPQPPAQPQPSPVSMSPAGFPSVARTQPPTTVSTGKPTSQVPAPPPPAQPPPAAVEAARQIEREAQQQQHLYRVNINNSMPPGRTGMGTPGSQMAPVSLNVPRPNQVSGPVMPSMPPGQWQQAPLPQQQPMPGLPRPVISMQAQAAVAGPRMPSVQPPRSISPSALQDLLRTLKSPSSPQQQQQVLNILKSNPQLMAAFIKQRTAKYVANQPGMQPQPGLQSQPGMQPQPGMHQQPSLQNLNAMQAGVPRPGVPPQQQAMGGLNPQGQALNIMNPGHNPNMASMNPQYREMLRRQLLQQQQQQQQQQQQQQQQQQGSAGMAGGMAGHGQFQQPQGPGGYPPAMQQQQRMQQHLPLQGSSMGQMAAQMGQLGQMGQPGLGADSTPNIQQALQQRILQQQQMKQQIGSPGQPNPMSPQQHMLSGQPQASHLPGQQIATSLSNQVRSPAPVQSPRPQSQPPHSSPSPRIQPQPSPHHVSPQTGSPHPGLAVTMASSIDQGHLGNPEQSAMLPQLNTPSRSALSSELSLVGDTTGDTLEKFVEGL
Chain of EP300 (Q09472 whole entry): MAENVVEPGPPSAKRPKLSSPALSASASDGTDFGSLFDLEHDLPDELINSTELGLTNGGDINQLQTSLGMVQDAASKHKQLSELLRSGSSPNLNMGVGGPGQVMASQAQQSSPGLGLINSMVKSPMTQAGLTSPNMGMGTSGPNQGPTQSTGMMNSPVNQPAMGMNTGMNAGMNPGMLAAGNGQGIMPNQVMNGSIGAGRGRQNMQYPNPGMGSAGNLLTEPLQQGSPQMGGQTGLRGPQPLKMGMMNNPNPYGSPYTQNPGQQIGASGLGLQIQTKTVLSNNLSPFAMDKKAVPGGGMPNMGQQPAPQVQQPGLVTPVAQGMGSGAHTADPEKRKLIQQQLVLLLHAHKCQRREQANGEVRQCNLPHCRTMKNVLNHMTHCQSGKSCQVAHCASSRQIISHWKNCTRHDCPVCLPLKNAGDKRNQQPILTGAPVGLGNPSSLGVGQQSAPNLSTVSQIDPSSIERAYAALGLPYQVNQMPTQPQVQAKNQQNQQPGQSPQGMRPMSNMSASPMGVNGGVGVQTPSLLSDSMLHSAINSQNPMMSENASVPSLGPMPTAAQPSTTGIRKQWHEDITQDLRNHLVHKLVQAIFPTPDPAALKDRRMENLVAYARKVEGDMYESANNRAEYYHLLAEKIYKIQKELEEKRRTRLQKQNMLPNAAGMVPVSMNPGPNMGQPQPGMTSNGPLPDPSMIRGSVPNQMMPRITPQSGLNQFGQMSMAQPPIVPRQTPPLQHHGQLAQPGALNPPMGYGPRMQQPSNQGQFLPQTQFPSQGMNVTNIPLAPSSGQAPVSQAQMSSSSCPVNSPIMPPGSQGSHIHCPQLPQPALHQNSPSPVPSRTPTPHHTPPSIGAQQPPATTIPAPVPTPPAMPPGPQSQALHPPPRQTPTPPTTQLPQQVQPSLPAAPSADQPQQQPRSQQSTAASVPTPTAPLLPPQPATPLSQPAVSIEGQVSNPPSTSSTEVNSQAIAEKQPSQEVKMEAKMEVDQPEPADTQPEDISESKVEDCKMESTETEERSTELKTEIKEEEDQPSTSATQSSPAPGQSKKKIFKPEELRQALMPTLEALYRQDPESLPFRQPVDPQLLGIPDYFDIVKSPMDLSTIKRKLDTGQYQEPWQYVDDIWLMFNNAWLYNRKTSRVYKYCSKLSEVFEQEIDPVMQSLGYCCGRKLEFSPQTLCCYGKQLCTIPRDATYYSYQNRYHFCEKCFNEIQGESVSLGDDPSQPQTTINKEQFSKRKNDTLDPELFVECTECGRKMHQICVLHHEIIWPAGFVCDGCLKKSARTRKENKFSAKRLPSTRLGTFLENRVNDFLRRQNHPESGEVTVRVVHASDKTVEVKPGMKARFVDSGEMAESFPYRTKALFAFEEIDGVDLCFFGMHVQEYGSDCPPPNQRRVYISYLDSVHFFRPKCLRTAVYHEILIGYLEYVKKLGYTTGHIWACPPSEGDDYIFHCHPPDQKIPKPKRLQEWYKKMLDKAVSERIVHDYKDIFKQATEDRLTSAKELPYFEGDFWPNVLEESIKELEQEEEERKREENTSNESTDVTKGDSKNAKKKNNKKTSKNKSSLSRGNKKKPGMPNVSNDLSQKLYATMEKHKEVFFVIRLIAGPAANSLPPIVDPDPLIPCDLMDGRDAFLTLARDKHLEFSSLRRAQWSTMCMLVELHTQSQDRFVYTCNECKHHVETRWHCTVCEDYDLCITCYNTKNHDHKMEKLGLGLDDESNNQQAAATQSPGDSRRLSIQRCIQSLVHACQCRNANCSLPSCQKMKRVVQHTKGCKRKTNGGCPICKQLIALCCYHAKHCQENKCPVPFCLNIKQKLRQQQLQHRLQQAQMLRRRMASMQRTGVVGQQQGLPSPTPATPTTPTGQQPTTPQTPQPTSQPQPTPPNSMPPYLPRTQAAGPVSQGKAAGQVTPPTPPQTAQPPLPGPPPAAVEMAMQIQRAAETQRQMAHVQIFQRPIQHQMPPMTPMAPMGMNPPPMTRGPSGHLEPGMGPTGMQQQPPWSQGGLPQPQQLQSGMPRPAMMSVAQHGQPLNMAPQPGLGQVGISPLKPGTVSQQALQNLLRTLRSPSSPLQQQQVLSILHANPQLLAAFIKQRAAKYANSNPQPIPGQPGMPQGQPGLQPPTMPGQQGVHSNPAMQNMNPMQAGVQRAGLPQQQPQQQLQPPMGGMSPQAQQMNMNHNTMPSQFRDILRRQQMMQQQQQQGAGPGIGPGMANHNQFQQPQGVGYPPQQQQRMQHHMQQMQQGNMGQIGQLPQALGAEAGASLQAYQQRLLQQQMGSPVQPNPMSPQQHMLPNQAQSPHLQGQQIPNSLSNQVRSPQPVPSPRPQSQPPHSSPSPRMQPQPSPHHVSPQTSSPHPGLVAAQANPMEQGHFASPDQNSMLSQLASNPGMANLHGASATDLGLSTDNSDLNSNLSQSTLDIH

Row | Structure (SMILES) | IC50 (H3K27Ac) | IC50 (CREBBP) | IC50 (EP300) | GI50 (LK2 cells) | GI50 (TE-8 cells)
1 | COc1cccc(C2(C(=O)N3C[C@H](F)C[C@@H]3C(=O)Nc3ccc4[nH]ncc4n3)CCC(F)(F)CC2)c1 [Example 93, (4R)-1-{[4,4-Difluoro-1-(3-methoxyphenyl)cyclohexyl]carbonyl}-4-fluoro-N-1H-pyrazolo[4,3-b]pyridin-5-yl-D-prolinamide] | 311 nM | 76 nM | 56 nM | 746 nM | 1050 nM
2 | COc1c(F)cc(C2(C(=O)N3C[C@H](F)C[C@@H]3C(=O)Nc3ccc4[nH]ncc4n3)CCC(F)(F)CC2)cc1F [Example 62] | 142 nM | 87 nM | 76 nM | 489 nM | 880 nM
3 | CCOc1ccc(C2(C(=O)N3C[C@H](F)C[C@@H]3C(=O)Nc3ccc4[nH]ncc4n3)CC(F)(F)C2)cc1F [Example 88] | 53 nM | 80 nM | 37 nM | 201 nM | 351 nM
4 | COc1ccc(C2(C(=O)N3C[C@H](F)C[C@@H]3C(=O)Nc3ccc4cc[nH]c4n3)CCCCC2)cc1 [Example 52] | 28 nM | 51 nM | 21 nM | 254 nM | 439 nM
5 | [2H]C([2H])([2H])N(C(=O)C1(c2ccc(OC)cc2)CCC(F)(F)CC1)[C@H](CO)C(=O)Nc1ccc2[nH]ccc2n1 [Example 77, 4,4-Difluoro-N-[(2R)-3-hydroxy-1-oxo-1-(1H-pyrrolo[3,2-b]pyridin-5-ylamino)propan-2-yl]-1-(4-methoxyphenyl)-N—(^2H3)methylcyclohexanecarboxamide] | 15 nM | 53 nM | 41 nM | 102 nM | 199 nM
6 | [2H]C([2H])([2H])N(C(=O)C1(c2ccc(OC)cc2)CCC(F)(F)CC1)[C@H](CO)C(=O)Nc1ccc2[nH]ncc2n1 [Example 76, 4,4-Difluoro-N-[(2R)-3-hydroxy-1-oxo-1-(1H-pyrazolo[4,3-b]pyridin-5-ylamino)propan-2-yl]-1-(4-methoxyphenyl)-N—(^2H3)methylcyclohexanecarboxamide] | 12 nM | 92 nM | 43 nM | 68.9 nM | 127 nM
7 | COc1ccc(C2(C(=O)N(C)[C@H](CO)C(=O)Nc3ccc4[nH]ncc4n3)CCC(F)(F)CC2)cc1 [Example 107, 4,4-Difluoro-N-[(2R)-3-hydroxy-1-oxo-1-(1H-pyrazolo[4,3-b]pyridin-5-ylamino)propan-2-yl]-1-(4-methoxyphenyl)-N-methylcyclohexanecarboxamide] | 14 nM | 155 nM | 49 nM | 99.9 nM | 195 nM
8 | COc1ccc(C2(C(=O)N(C)[C@@H](C(=O)Nc3ccc4[nH]ncc4n3)[C@@H](C)O)CCC(F)(F)CC2)cc1 [Example 78, 4,4-Difluoro-N-[(2R,3R)-3-hydroxy-1-oxo-1-(1H-pyrazolo[4,3-b]pyridin-5-ylamino)butan-2-yl]-1-(4-methoxyphenyl)-N-methylcyclohexanecarboxamide] | 769 nM | 323 nM | 259 nM | 2150 nM | 4630 nM
9 | COc1ccc(C2(C(=O)N3CCC[C@@H]3C(=O)Nc3cccc4[nH]ncc34)CCCCCC2)cc1 [Example 54] | 920 nM | 201 nM | 126 nM | 2970 nM | 4480 nM
10 | COc1ncc(C2(C(=O)N3C[C@H](F)C[C@@H]3C(=O)Nc3ccc4[nH]ncc4n3)CCCC2)cn1 [Example 64] | 188 nM | 121 nM | 56 nM | 643 nM | 1270 nM

The remaining compounds from weak to strong by IC50 (H3K27Ac), led by results:

Row | IC50 (H3K27Ac) | IC50 (CREBBP) | IC50 (EP300) | Structure (SMILES) | GI50 (LK2 cells) | GI50 (TE-8 cells)
11 | 1150 nM | 182 nM | 177 nM | COc1ccc(C2(C(=O)N(CCO)CC(=O)Nc3ccc4[nH]ncc4n3)CCC(F)(F)CC2)cc1 [Example 72, 4,4-Difluoro-N-(2-hydroxyethyl)-1-(4-methoxyphenyl)-N-[2-oxo-2-(1H-pyrazolo[4,3-b]pyridin-5-ylamino)ethyl]cyclohexanecarboxamide] | > 10000 nM | > 10000 nM
12 | 240 nM | 235 nM | 120 nM | CC(=O)Nc1ccc(C2(C(=O)N3C[C@H](F)C[C@@H]3C(=O)Nc3ccc4[nH]ncc4n3)CCC(F)(F)CC2)cc1 [Example 101, (4R)-1-({1-[4-(acetylamino)phenyl]-4,4-difluorocyclohexyl}carbonyl)-4-fluoro-N-1H-pyrazolo[4,3-b]pyridin-5-yl-D-prolinamide] | 707 nM | 1050 nM
13 | 218 nM | 123 nM | 70 nM | COc1ccc(C2(C(=O)N3C[C@H](F)C[C@@H]3C(=O)Nc3ccc4[nH]c(C)cc4n3)CCC(F)(F)CC2)cc1 [Example 97, (4R)-1-{[4,4-Difluoro-1-(4-methoxyphenyl)cyclohexyl]carbonyl}-4-fluoro-N-(2-methyl-1H-pyrrolo[3,2-b]pyridin-5-yl)-D-prolinamide] | 854 nM | 1180 nM
14 | 125 nM | 83 nM | 50 nM | COc1ccc(C2(C(=O)N3CCOCC(Cc4cccc5[nH]ncc45)C3)CCCC2)cc1 (single isomer, unassigned) [Example 108b, [6-(1H-Indazol-4-ylmethyl)-1,4-oxazepan-4-yl][1-(4-methoxyphenyl)cyclopentyl]methanone] | 1090 nM | 1160 nM
15 | 89 nM | 75 nM | 31 nM | [2H]C([2H])([2H])Oc1ccc(C2(C(=O)N3C[C@H](F)C[C@@H]3C(=O)Nc3ccc4[nH]ncc4n3)CCC(F)(F)CC2)cc1F [Example 91, (4R)-1-[(4,4-Difluoro-1-{3-fluoro-4-[(^2H3)methyloxy]phenyl}cyclohexyl)carbonyl]-4-fluoro-N-1H-pyrazolo[4,3-b]pyridin-5-yl-D-prolinamide] | 217 nM | 364 nM
16 | 77 nM | 59 nM | 13 nM | COc1ccc(C(C)(C)C(=O)N2C[C@H](F)C[C@@H]2C(=O)Nc2ccc3[nH]ncc3n2)cc1 [Example 47] | 585 nM | 1140 nM
17 | 51 nM | 53 nM | 22 nM | [2H]C([2H])([2H])Oc1ccc(C2(C(=O)N3C[C@H](F)C[C@@H]3C(=O)Nc3ccc4[nH]ncc4n3)CCC(F)(F)CC2)cc1 [Example 92, (4R)-1-[(4,4-Difluoro-1-{4-[(^2H3)methyloxy]phenyl}cyclohexyl)carbonyl]-4-fluoro-N-1H-pyrazolo[4,3-b]pyridin-5-yl-D-prolinamide] | 195 nM | 308 nM
18 | 16 nM | 64 nM | 41 nM | COC(=O)c1ccc(C2(C(=O)N3C[C@H](F)C[C@@H]3C(=O)Nc3ccc4[nH]ncc4n3)CCCCC2)cc1 [Example 81b, methyl 4-(1-{[(2R,4R)-4-Fluoro-2-(1H-pyrazolo[4,3-b]pyridin-5-ylcarbamoyl)pyrrolidin-1-yl]carbonyl}cyclohexyl)benzoate] | 231 nM | 258 nM
19 | 9 nM | 7 nM | 4 nM | O=C(Nc1ccc2[nH]ncc2n1)[C@H]1C[C@@H](F)CN1C(=O)C1(c2ccc(OC(F)F)cc2)CC(F)(F)C1 [Example 90] | 73.4 nM | 106 nM
20 | 9 nM | 37 nM | 18 nM | COc1ccc(C2(C(=O)N3CS(=O)(=O)C[C@@H]3C(=O)Nc3ccc4[nH]ccc4n3)CCCC2)cc1 [Example 65, (4S)-3-{[1-(4-Methoxyphenyl)cyclopentyl]carbonyl}-N-(1H-pyrrolo[3,2-b]pyridin-5-yl)-1,3-thiazolidine-4-carboxamide 1,1-dioxide] | 79.2 nM | 151 nM
